Measured values taken from ChEMBL document CHEMBL1201862, “PubChem BioAssay data set” (2004).
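Test compounds were applied to cells in 96-well plates for 48 hours at 5 doses. GI50 = concentration required for 50% inhibition of growth.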 Active and inactive are the calls of the source. No stated cut-off is given here; in the data, active = GI50 up to about 1.1 µM and inactive = higher.

How the values were obtained:
Experiment in all cases: inhibition of tumour cell growth, NCI panel, 48 h
SN12C = tested on: SN12C
KM-20L2 = tested on: KM-20L2
IGROV-1 = tested on: IGROV-1
MOLT-4 = tested on: MOLT-4
U-251 = tested on: U-251
786-0 = tested on: 786-0
SNB-19 = tested on: SNB-19
KM12 = tested on: KM12
HOP-62 = tested on: HOP-62
NCI-H522 = tested on: NCI-H522
SK-MEL-2 = tested on: SK-MEL-2
OVCAR-8 = tested on: OVCAR-8
TK-10 = tested on: TK-10
SF-539 = tested on: SF-539
UACC-62 = tested on: UACC-62
NCI-H226 = tested on: NCI-H226
SNB-78 = tested on: SNB-78
CCRF-CEM = tested on: CCRF-CEM
NCI-H23 = tested on: NCI-H23
HT-29 = tested on: HT-29
NCI-H460 = tested on: NCI-H460
K562 = tested on: K562
UO-31 = tested on: UO-31
SK-MEL-28 = tested on: SK-MEL-28
LOX IMVI = tested on: LOX IMVI
SF-268 = tested on: SF-268
RXF 393 = tested on: RXF 393
EKVX = tested on: EKVX
SK-MEL-5 = tested on: SK-MEL-5
OVCAR-5 = tested on: OVCAR-5
M19-MEL = tested on: M19-MEL
DMS-114 = tested on: DMS-114
HCT-15 = tested on: HCT-15
Malme-3M = tested on: Malme-3M
SR = tested on: SR
A549 = tested on: A549
HCT-116 = tested on: HCT-116
M14 = tested on: M14
LXFL 529 = tested on: LXFL 529
HL-60 = tested on: HL-60
COLO 205 = tested on: COLO 205
SF-295 = tested on: SF-295
RPMI-8226 = tested on: RPMI-8226
XF498 = tested on: XF498
SW-620 = tested on: SW-620
ACHN = tested on: ACHN
OVCAR-4 = tested on: OVCAR-4
OVCAR-3 = tested on: OVCAR-3
DMS-273 = tested on: DMS-273
DLD-1 = tested on: DLD-1
SNB-75 = tested on: SNB-75
HCC 2998 = tested on: HCC 2998
A498 = tested on: A498
SK-OV-3 = tested on: SK-OV-3
HOP-92 = tested on: HOP-92
MCF7 = tested on: MCF7
HOP-18 = tested on: HOP-18
CAKI-1 = tested on: CAKI-1
NCI/ADR-RES = tested on: NCI/ADR-RES
UACC-257 = tested on: UACC-257

CCCN(CCC)C1=Nc2ccccc2-n2cnnc2C1
GI50 (SN12C): > 100 µM (inactive)
GI50 (KM-20L2): > 100 µM (inactive)
GI50 (IGROV-1): > 100 µM (inactive)
GI50 (MOLT-4): > 100 µM (inactive)
GI50 (U-251): > 100 µM (inactive)
GI50 (786-0): > 100 µM (inactive)
GI50 (SNB-19): > 100 µM (inactive)
GI50 (KM12): > 100 µM (inactive)
GI50 (HOP-62): > 100 µM (inactive)
GI50 (NCI-H522): 37.8 µM (inactive)
GI50 (SK-MEL-2): > 100 µM (inactive)
GI50 (OVCAR-8): > 100 µM (inactive)
GI50 (TK-10): > 100 µM (inactive)
GI50 (SF-539): > 100 µM (inactive)
GI50 (UACC-62): > 100 µM (inactive)
GI50 (NCI-H226): > 100 µM (inactive)
GI50 (SNB-78): > 100 µM (inactive)
GI50 (CCRF-CEM): > 100 µM (inactive)
GI50 (NCI-H23): > 100 µM (inactive)
GI50 (HT-29): > 100 µM (inactive)
GI50 (NCI-H460): > 100 µM (inactive)
GI50 (K562): > 100 µM (inactive)
GI50 (UO-31): > 100 µM (inactive)
GI50 (SK-MEL-28): > 100 µM (inactive)
GI50 (LOX IMVI): > 100 µM (inactive)
GI50 (SF-268): > 100 µM (inactive)
GI50 (RXF 393): > 100 µM (inactive)
GI50 (EKVX): > 100 µM (inactive)
GI50 (SK-MEL-5): > 100 µM (inactive)
GI50 (OVCAR-5): > 100 µM (inactive)
GI50 (M19-MEL): > 100 µM (inactive)
GI50 (DMS-114): > 100 µM (inactive)
GI50 (HCT-15): > 100 µM
GI50 (Malme-3M): > 100 µM (inactive)
GI50 (SR): > 100 µM (inactive)
GI50 (A549): > 100 µM (inactive)
GI50 (HCT-116): > 100 µM (inactive)
GI50 (M14): > 100 µM (inactive)
GI50 (LXFL 529): > 100 µM (inactive)
GI50 (HL-60): > 100 µM (inactive)
GI50 (COLO 205): > 100 µM (inactive)
GI50 (SF-295): > 100 µM (inactive)
GI50 (RPMI-8226): > 100 µM (inactive)
GI50 (XF498): > 100 µM (inactive)
GI50 (SW-620): > 100 µM (inactive)
GI50 (ACHN): > 100 µM (inactive)
GI50 (OVCAR-4): > 100 µM (inactive)
GI50 (OVCAR-3): > 100 µM (inactive)
GI50 (DMS-273): > 100 µM (inactive)

COC1=CC(=O)C2C(C1=O)C(c1ccccc1)[C@H]2C (some centres undefined)
GI50 (DLD-1): > 10 µM (inactive)
GI50 (IGROV-1): > 100 µM (inactive)
GI50 (MOLT-4): > 10 µM (inactive)
GI50 (U-251): > 100 µM (inactive)
GI50 (786-0): > 100 µM (inactive)
GI50 (SNB-19): > 100 µM (inactive)
GI50 (KM12): > 100 µM (inactive)
GI50 (HOP-62): > 100 µM (inactive)
GI50 (SK-MEL-2): > 100 µM (inactive)
GI50 (OVCAR-8): 45.6 µM (inactive)
GI50 (TK-10): > 100 µM (inactive)
GI50 (SF-539): > 100 µM (inactive)
GI50 (UACC-62): > 100 µM (inactive)
GI50 (SNB-78): > 10 µM (inactive)
GI50 (CCRF-CEM): 28.4 µM (inactive)
GI50 (SNB-75): 32.3 µM (inactive)
GI50 (NCI-H23): > 100 µM (inactive)
GI50 (HT-29): > 100 µM (inactive)
GI50 (NCI-H460): > 100 µM (inactive)
GI50 (K562): 34.4 µM (inactive)
GI50 (UO-31): > 100 µM (inactive)
GI50 (SK-MEL-28): > 100 µM (inactive)
GI50 (LOX IMVI): > 100 µM (inactive)
GI50 (SF-268): > 100 µM (inactive)
GI50 (RXF 393): > 100 µM (inactive)
GI50 (EKVX): > 100 µM (inactive)
GI50 (SK-MEL-5): 80 µM (inactive)
GI50 (OVCAR-5): > 100 µM (inactive)
GI50 (HCT-15): 18.9 µM
GI50 (Malme-3M): 26.1 µM (inactive)
GI50 (HCC 2998): > 100 µM (inactive)
GI50 (SR): 31.6 µM (inactive)
GI50 (A549): > 100 µM (inactive)
GI50 (M14): > 100 µM (inactive)
GI50 (LXFL 529): 37.2 µM (inactive)
GI50 (HL-60): 38.9 µM (inactive)
GI50 (COLO 205): > 100 µM (inactive)
GI50 (SF-295): > 100 µM (inactive)
GI50 (RPMI-8226): 35.9 µM (inactive)
GI50 (A498): > 100 µM (inactive)
GI50 (XF498): 22.3 µM (inactive)
GI50 (SW-620): 18.5 µM (inactive)
GI50 (ACHN): 25.5 µM (inactive)
GI50 (OVCAR-3): 87.1 µM (inactive)
GI50 (DMS-273): > 100 µM (inactive)
GI50 (SK-OV-3): > 100 µM (inactive)
GI50 (HOP-92): 25.7 µM (inactive)

Nc1ccn(C2OC(CO)C(O)C2O)c(=O)c1 (centres undefined)
GI50 (SN12C): 108 µM (inactive)
GI50 (DLD-1): 513 µM (inactive)
GI50 (KM-20L2): 566 µM (inactive)
GI50 (IGROV-1): > 625 µM (inactive)
GI50 (U-251): > 625 µM (inactive)
GI50 (SNB-19): > 625 µM (inactive)
GI50 (KM12): > 625 µM (inactive)
GI50 (HOP-62): 136 µM (inactive)
GI50 (NCI-H522): > 625 µM (inactive)
GI50 (OVCAR-8): 137 µM (inactive)
GI50 (SF-539): 186 µM (inactive)
GI50 (UACC-62): 337 µM (inactive)
GI50 (NCI-H226): > 625 µM (inactive)
GI50 (SNB-78): > 625 µM (inactive)
GI50 (CCRF-CEM): > 625 µM (inactive)
GI50 (SNB-75): 583 µM (inactive)
GI50 (NCI-H23): > 625 µM (inactive)
GI50 (HT-29): 270 µM (inactive)
GI50 (NCI-H460): 38.7 µM (inactive)
GI50 (MCF7): 188 µM (inactive)
GI50 (UO-31): 360 µM (inactive)
GI50 (SK-MEL-28): > 625 µM (inactive)
GI50 (LOX IMVI): 143 µM (inactive)
GI50 (SF-268): > 625 µM (inactive)
GI50 (RXF 393): 348 µM (inactive)
GI50 (SK-MEL-5): > 625 µM (inactive)
GI50 (HOP-18): 295 µM (inactive)
GI50 (HCT-15): > 625 µM
GI50 (Malme-3M): 114 µM (inactive)
GI50 (HCC 2998): 63.2 µM (inactive)
GI50 (A549): 179 µM (inactive)
GI50 (CAKI-1): 176 µM (inactive)
GI50 (HCT-116): 125 µM (inactive)
GI50 (HL-60): 239 µM (inactive)
GI50 (NCI/ADR-RES): 180 µM (inactive)
GI50 (COLO 205): 164 µM (inactive)
GI50 (SF-295): > 625 µM (inactive)
GI50 (RPMI-8226): 174 µM (inactive)
GI50 (XF498): < 0.0625 µM (active)
GI50 (SW-620): 610 µM (inactive)
GI50 (OVCAR-4): 285 µM (inactive)
GI50 (OVCAR-3): > 625 µM (inactive)
GI50 (DMS-273): 165 µM (inactive)
GI50 (SK-OV-3): > 625 µM (inactive)
GI50 (HOP-92): 279 µM (inactive)

O=C1CC[C@@H](NC(=O)Cc2ccccc2)C(=O)N1
GI50 (SN12C): > 100 µM (inactive)
GI50 (DLD-1): > 100 µM (inactive)
GI50 (KM-20L2): > 100 µM (inactive)
GI50 (IGROV-1): > 100 µM (inactive)
GI50 (MOLT-4): > 100 µM (inactive)
GI50 (U-251): > 100 µM (inactive)
GI50 (786-0): > 100 µM (inactive)
GI50 (SNB-19): > 100 µM (inactive)
GI50 (KM12): > 100 µM (inactive)
GI50 (HOP-62): > 100 µM (inactive)
GI50 (NCI-H522): > 100 µM (inactive)
GI50 (SK-MEL-2): > 100 µM (inactive)
GI50 (OVCAR-8): > 100 µM (inactive)
GI50 (TK-10): > 100 µM (inactive)
GI50 (SF-539): > 100 µM (inactive)
GI50 (UACC-62): > 100 µM (inactive)
GI50 (NCI-H226): > 100 µM (inactive)
GI50 (CCRF-CEM): > 100 µM (inactive)
GI50 (SNB-75): > 100 µM (inactive)
GI50 (NCI-H23): > 100 µM (inactive)
GI50 (HT-29): > 100 µM (inactive)
GI50 (NCI-H460): > 100 µM (inactive)
GI50 (K562): > 100 µM (inactive)
GI50 (UO-31): > 100 µM (inactive)
GI50 (SK-MEL-28): > 100 µM (inactive)
GI50 (LOX IMVI): > 100 µM (inactive)
GI50 (SF-268): > 100 µM (inactive)
GI50 (EKVX): > 100 µM (inactive)
GI50 (SK-MEL-5): > 100 µM (inactive)
GI50 (HOP-18): > 100 µM (inactive)
GI50 (OVCAR-5): > 100 µM (inactive)
GI50 (M19-MEL): > 100 µM (inactive)
GI50 (Malme-3M): > 100 µM (inactive)
GI50 (HCC 2998): > 100 µM (inactive)
GI50 (SR): > 100 µM (inactive)
GI50 (A549): > 100 µM (inactive)
GI50 (CAKI-1): > 100 µM (inactive)
GI50 (HCT-116): > 100 µM (inactive)
GI50 (M14): > 100 µM (inactive)
GI50 (LXFL 529): > 100 µM (inactive)
GI50 (COLO 205): > 100 µM (inactive)
GI50 (SF-295): > 100 µM (inactive)
GI50 (RPMI-8226): > 100 µM (inactive)
GI50 (A498): > 100 µM (inactive)
GI50 (XF498): > 100 µM (inactive)
GI50 (SW-620): > 100 µM (inactive)
GI50 (ACHN): > 100 µM (inactive)
GI50 (OVCAR-4): > 100 µM (inactive)
GI50 (UACC-257): > 100 µM (inactive)
GI50 (OVCAR-3): > 100 µM (inactive)
GI50 (DMS-273): > 100 µM (inactive)
GI50 (SK-OV-3): > 100 µM (inactive)
GI50 (HOP-92): > 100 µM (inactive)
